Measurements taken from ChEMBL document CHEMBL1135974 (J Med Chem, 2002).
The source made the active and inactive calls. No cut-off for these calls is given here.

Columns and labels:
D(3) dopamine receptor [1] = molecular target: T1, D(3) dopamine receptor (Homo sapiens, UniProt P35462); assay: Rate of [3H]thymidine uptake compared to quinpirole (100%) in Dopamine receptor D3 expressing CHO cells; assay type: functional, cell-based; settings: Cricetulus griseus
D(3) dopamine receptor [2] = molecular target: T1, D(3) dopamine receptor; settings: Cricetulus griseus; CHO
D(3) dopamine receptor [3] = molecular target: T1, D(3) dopamine receptor; settings: Cricetulus griseus; CHO; remark: listed apart in the source
[4] = molecular target: 5-HT2 receptor (Sus scrofa); assay: Binding affinity for porcine 5-hydroxytryptamine 2 receptor using [3H]- ketanserin
[5] = molecular target: Adrenergic receptor alpha-1 (Sus scrofa); assay: […] from porcine Alpha-1 adrenergic receptor; assay type: protein assay
D(4) dopamine receptor = molecular target: T2, D(4) dopamine receptor (Homo sapiens, UniProt P21917)
T2 sequence (P21917 whole entry): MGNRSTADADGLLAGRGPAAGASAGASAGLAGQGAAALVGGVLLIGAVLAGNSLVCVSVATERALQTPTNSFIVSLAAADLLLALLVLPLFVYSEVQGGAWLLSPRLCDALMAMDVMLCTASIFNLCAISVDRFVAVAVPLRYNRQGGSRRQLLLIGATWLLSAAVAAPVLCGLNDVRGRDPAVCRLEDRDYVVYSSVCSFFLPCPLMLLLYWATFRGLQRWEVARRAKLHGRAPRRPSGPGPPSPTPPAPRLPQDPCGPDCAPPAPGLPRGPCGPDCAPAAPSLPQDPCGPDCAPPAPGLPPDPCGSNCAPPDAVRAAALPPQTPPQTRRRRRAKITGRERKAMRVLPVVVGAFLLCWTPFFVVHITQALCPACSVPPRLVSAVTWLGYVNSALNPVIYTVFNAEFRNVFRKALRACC
Description: Binding affinity for human Dopamine receptor D4 by [3H]- spiperone displacement.

D(2) dopamine receptor [6] = molecular target: T3, D(2) dopamine receptor (Homo sapiens, UniProt P14416)
Description: Binding affinity for human Dopamine receptor D2 (short) by [3H]- spiperone displacement.

D(2) dopamine receptor [7] = molecular target: T3, D(2) dopamine receptor; remark: listed apart in the source
Description: Binding affinity for human Dopamine receptor D2 (long) by [3H]- spiperone displacement.

D(3) dopamine receptor [8] = molecular target: T1, D(3) dopamine receptor
Description: Binding affinity for human Dopamine receptor D3 by [3H]- spiperone displacement.

T1 sequence (P35462 whole entry): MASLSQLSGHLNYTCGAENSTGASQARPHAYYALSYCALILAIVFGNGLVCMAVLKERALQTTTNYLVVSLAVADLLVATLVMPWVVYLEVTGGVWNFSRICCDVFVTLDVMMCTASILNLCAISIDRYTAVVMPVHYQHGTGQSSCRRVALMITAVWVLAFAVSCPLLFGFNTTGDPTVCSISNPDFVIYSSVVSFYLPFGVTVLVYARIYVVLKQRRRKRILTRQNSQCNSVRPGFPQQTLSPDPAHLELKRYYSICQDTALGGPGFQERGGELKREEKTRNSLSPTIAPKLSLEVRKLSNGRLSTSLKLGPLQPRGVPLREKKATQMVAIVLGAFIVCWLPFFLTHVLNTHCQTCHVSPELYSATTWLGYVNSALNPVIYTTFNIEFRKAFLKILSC
T3 sequence (P14416 whole entry): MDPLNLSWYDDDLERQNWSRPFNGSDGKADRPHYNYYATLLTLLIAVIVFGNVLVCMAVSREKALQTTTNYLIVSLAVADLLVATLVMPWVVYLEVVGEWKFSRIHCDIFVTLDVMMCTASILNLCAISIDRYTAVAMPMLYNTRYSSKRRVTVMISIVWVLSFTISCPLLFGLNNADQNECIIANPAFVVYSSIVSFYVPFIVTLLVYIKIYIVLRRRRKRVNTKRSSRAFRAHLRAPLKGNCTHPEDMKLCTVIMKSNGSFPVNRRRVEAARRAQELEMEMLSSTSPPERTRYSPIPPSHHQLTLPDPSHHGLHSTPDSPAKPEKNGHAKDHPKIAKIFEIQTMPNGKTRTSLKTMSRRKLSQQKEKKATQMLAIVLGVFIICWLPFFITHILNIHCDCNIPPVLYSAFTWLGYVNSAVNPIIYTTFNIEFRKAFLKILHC

COc1ccccc1N1CCN(CCCCNC(=O)c2cc3ccccn3n2)CC1
Effect (D(3) dopamine receptor [1]): 52%

O=C(NCCCCN1CCN(c2cccc(Cl)c2Cl)CC1)c1cc2ccccc2o1
Effect (D(3) dopamine receptor [2]): inactive

COc1ccccc1N1CCN(CCCCNC(=O)c2cc3ccccc3[te]2)CC1
NE (D(3) dopamine receptor [3]): inactive

O=C(NCCCCN1CCN(c2cccc(Cl)c2Cl)CC1)c1cc2ccccc2[te]1
Ki [4]: 730 nM
Ki [5]: > 1000 nM
Ki (D(4) dopamine receptor): 150 nM
Ki (D(2) dopamine receptor [6]): 48 nM
Ki (D(2) dopamine receptor [7]): 91 nM
Ki (D(3) dopamine receptor [8]): 0.55 nM
NE (D(3) dopamine receptor [3]): inactive

O=C(NCCCCN1CCN(c2cccc(Cl)c2Cl)CC1)c1cc2ccccc2s1
NE (D(3) dopamine receptor [3]): inactive
